Test results reported in US20240059688A1, “CONOLIDINE ANALOGUES AS SELECTIVE ACKR3 MODULATORS FOR THE TREATMENT OF CANCER” (Luxembourg Institute of Health (LIH), priority 2020, published 2024).

Experiments:
Assay type in all cases: cell-based
CaV 3.2 = molecular target: T1, CaV 3.2 (Homo sapiens, UniProt O95180); assay: CaV 3.2 calcium assay in stable human CaV3.2-HEK293 cells; settings: control agonist calcium chloride
T1 construct: expressed in transfected cells
Method: (§1) Compounds were evaluated for kappa (KOR), mu (MOR), and delta (DOR) opioid receptor agonist and antagonist activity in three individual cell lines overexpressing Gαq16 (CHO-RD-HGA16, Molecular Devices) and the human kappa, mu, and delta opioid receptors, respectively. The day before the assay, cells were plated into 96-well black-walled assay plates at 30,000 cells/well in Ham's F12 supplemented with 10% fetal bovine serum, and 100 units of penicillin and streptomycin. The cells were incubated overnight at 37° C., 5% CO2. Prior to the assay, Calcium 5 dye (Molecular Devices) was reconstituted according to the manufacturer's instructions. The reconstituted dye was diluted 1:40 in pre-warmed (37° C.) assay buffer (1×HBSS, 20 mM HEPES, 2.5 mM probenecid, pH 7.4 at 37° C.). Growth medium was removed and the cells were gently washed with 100 μL of pre-warmed (37° C.) assay buffer. The cells were incubated for 45 minutes at 37° C., 5% CO2 in 200 μL of the diluted Calcium 5 dye. For the agonist screen, a single concentration of each test compound and receptor-specific controls (U69,593, DAMGO, and DPDPE for KOR, MOR, and DOR, respectively) were prepared at 10× the desired final concentration in 1% DMSO/assay buffer, aliquoted into a 96-well polystyrene plate, and warmed to 37° C. After the dye-loading incubation period, pretreatment solution was added to each well (25 μL of 9% DMSO/assay buffer) and, after 15 min, the plate was read with a FlexStation II (Molecular Devices). Calcium-mediated changes in fluorescence were monitored every 1.52 seconds over a 60 second time period, with the FlexStation II adding 50 μL of test compounds at the 19 second time point (excitation at 485 nm, detection at 525 nm). Peak kinetic reduction (SoftMax, Molecular Devices) relative fluorescence units (RFU) were used to calculate % control agonist Emax with the equation % Emax=(test compound RFU/control agonist RFU)×100. For the antagonist screens, the same procedure was followed except that the pretreatment solution consisted of the test compounds (prepared at […] the desired final concentration in 9% DMSO/assay buffer) and the FlexStation added the EC60 concentration (prepared at 10× the desired final concentration in 1% DMSO/assay buffer) of each respective control agonist. Peak RFU were used to calculate % control EC60 inhibition with the equation % inhibition=((EC60 RFU−test compound RFU)/EC60 RFU)×100. When IC50 determinations were made, the same antagonist screen procedure was followed except that cells were pretreated with 8-pt concentration-response curves of the test compounds. Peak RFU were plotted against the log of compound concentration using non-linear regression analysis to generate IC50 values (GraphPad Prism). Each test sample was analyzed in duplicate in two independent experiments.
Compounds were evaluated for activity at CaV 3.2 using stable human CaV3.2-HEK293 cells and the control agonist calcium chloride. The day before the assay, cells were plated into 96-well black-walled assay plates coated with poly-D-lysine in DMEM-F12 supplemented with 10% fetal bovine serum, 100 units penicillin/streptomycin, and 500 μM sodium pyruvate, and incubated at 37° C., 5% CO2 overnight. Prior to the assay, Calcium 5 dye (Molecular Devices) was reconstituted according to the manufacturer instructions. The reconstituted dye was diluted 1:10 in pre-warmed (37° C.) assay buffer (1×HBSS, […], […], pH 7.4 at 37° C.). The cells were incubated for 45 minutes at 37° C., 5% CO2 in 200 μL of the diluted Calcium 5 dye. Compounds were prepared as described above and the plate was read with a FLIPR Tetra (Molecular Devices). Calcium-mediated changes in fluorescence were monitored every 1 second over a 60 second time period, with the Tetra adding 25 μL of appropriate compound at the 10 second time point (excitation at 470-495 nm, detection at 515-575 nm). […]

NOP = molecular target: T2, NOP (Homo sapiens, UniProt P41146); assay: NanoBiT-based β-arrestin-2 recruitment assay, NOP; settings: concentration range 0.15 nM to 80 μM; reference Nociceptin
T2 construct: expressed in transfected cells; host or cells: U87
Method: The ability of the different molecules to activate the four opioid receptors MOR, DOR, KOR and NOP that are known to mediate in vivo analgesic effects was tested using the NanoBiT-based β-arrestin-2 recruitment assay in a concentration range of 0.15 nM to 80 μM. For each of these receptors a reference ligand corresponding to an endogenous opioid peptide i.e. Met-enkephalin, BAM22, Dynorphin A and Nociceptin, respectively was included.
Ligand-induced β-arrestin recruitment to chemokine and opioid receptors was monitored by NanoLuc complementation assay (NanoBiT, Promega). In brief, 1.2×10^6 U87 cells were plated in 10-cm culture dishes and 48 hours later co-transfected with pNBe vectors encoding GPCRs (ACKR3, MOR, DOR, KOR, or NOP) C-terminally tagged with SmBiT and human β-arrestin-1 (arrestin-2) or β-arrestin-2 (arrestin-3) N-terminally fused to LgBiT. 48 hours post-transfection cells were harvested, incubated 25 minutes at 37° C. with Nano-Glo Live Cell substrate diluted 200-fold and distributed into white 96-well plates (5×10^4 cells per well). Ligand-induced, β-arrestin to GPCRs was evaluated with a Mithras LB940 luminometer (Berthold Technologies, running on MicroWin 2010 5.19 software (Mikrotek Laborsysteme)) for 20 minutes.
For concentration-response curves (FIG. 2), the signal recorded with a saturating concentration of full agonist for each receptor was set as 100%. […]

DOR = DOR (Homo sapiens, UniProt P41143); assay: DOR calcium mobilization agonist/antagonist screen (CHO-RD-HGA16 cells); set-up: host or cells: CHO-RD-HGA16; settings: single concentration; for Emax: CHO-RD-HGA16, agonist screen, control agonist DPDPE
Method: as §1

Sequence of DOR (P41143 whole entry): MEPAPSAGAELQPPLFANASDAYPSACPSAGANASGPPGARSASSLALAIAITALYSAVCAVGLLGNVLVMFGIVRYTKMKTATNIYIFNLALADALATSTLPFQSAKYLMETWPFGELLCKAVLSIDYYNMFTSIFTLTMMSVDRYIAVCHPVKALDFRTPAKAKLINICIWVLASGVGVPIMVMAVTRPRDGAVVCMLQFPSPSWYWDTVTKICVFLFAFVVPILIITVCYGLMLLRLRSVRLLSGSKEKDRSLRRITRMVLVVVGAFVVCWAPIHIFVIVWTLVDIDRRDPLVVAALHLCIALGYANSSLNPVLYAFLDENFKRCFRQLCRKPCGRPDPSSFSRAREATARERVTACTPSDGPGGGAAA
T2 sequence (P41146 whole entry): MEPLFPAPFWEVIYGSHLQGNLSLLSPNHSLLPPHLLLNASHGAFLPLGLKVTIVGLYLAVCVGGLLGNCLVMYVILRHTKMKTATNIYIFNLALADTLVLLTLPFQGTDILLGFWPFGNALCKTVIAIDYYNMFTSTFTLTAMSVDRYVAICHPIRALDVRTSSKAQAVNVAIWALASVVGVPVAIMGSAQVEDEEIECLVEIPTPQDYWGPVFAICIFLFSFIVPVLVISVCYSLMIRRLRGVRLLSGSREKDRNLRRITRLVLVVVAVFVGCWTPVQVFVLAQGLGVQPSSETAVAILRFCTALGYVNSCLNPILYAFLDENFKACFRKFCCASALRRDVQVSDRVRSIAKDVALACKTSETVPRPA
T1 sequence (O95180 whole entry): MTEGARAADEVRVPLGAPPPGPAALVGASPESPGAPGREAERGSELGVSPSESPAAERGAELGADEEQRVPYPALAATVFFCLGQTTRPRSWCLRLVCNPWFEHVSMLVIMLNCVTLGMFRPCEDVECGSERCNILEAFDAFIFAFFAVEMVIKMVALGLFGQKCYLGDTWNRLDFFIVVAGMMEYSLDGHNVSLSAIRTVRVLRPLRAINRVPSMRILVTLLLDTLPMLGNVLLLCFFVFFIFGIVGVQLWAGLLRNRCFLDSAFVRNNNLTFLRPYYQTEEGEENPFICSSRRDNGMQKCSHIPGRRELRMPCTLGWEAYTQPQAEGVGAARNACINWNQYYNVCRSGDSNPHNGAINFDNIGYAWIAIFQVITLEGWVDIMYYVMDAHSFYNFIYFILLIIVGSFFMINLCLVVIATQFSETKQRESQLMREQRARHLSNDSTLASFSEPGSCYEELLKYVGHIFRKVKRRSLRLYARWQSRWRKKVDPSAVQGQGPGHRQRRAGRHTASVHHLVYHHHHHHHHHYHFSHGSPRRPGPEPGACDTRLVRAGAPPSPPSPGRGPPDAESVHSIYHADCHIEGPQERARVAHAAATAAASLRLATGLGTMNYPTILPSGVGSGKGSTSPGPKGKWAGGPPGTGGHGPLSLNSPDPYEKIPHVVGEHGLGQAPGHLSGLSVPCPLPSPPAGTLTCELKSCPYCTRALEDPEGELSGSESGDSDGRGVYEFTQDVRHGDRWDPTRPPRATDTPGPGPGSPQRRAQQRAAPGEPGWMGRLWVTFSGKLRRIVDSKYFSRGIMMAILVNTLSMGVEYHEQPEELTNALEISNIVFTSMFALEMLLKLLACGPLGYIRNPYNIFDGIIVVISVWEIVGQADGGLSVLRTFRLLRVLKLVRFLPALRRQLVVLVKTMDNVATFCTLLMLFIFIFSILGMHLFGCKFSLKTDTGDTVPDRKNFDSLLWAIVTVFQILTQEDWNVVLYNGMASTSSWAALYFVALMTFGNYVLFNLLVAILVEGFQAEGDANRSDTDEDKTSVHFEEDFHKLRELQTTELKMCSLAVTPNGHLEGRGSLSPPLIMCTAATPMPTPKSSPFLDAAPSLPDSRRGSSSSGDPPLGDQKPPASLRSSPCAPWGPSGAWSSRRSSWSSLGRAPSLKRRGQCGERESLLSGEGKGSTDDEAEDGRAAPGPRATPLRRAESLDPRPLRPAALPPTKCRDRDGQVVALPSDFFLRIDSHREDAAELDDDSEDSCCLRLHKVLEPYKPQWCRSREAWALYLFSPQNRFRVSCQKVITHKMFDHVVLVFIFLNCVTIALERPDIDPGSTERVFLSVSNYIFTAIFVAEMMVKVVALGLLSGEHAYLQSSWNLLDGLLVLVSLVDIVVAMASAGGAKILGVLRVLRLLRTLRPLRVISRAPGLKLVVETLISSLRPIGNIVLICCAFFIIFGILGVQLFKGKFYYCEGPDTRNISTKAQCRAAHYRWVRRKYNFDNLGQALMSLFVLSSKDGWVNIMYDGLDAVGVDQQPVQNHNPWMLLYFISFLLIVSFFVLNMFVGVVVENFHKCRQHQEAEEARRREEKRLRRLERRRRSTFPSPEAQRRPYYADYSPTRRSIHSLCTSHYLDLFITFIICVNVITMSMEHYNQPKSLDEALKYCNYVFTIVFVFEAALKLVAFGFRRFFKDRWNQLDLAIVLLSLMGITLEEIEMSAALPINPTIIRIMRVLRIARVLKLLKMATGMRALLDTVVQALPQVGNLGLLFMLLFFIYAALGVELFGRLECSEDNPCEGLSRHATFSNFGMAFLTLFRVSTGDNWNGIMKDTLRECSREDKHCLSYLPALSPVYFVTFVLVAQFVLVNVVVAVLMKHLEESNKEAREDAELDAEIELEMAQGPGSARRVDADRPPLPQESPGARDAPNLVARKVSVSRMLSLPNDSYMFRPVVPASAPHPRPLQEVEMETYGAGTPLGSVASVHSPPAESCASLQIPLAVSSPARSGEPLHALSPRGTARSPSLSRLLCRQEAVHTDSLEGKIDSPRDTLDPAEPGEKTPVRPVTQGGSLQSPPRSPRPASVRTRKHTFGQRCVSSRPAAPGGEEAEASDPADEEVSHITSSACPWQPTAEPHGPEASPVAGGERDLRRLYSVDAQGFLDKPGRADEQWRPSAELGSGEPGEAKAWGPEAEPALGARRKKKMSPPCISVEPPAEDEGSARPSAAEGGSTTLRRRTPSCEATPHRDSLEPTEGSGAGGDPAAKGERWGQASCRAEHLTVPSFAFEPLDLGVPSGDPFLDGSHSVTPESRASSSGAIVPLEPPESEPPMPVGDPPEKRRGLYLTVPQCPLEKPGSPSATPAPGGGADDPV

Compound: C/C=C1/CN2CC[C@H]1C(=O)c1[nH]c3ccccc3c1C2 [WW-1, (4E,5R)-4-ethylidene-1,4,5,7-tetrahydro-2,5-ethanoazocino[4,3-b]indol-6(3H)-one]
- CaV 3.2 % CaCl2 Inhibition (CaV 3.2): −7%
- activation of NOP (β-arrestin-2 recruitment) (NOP): not active
- Emax (DOR): 0%
- DOR Calcium % DPDPE Inhibition (DOR; antagonist screen, vs EC60 of DPDPE): 22%

Compound: C/C=C1/CN(CCCCC)CC[C@H]1C(=O)c1cc2ccccc2[nH]1 [WW-12, [(3E,4R)-3-ethylidene-1-pentylpiperidin-4-yl](1H-indol-2-yl)methanone]
- CaV 3.2 % CaCl2 Inhibition (CaV 3.2): 42%
- activation of NOP (β-arrestin-2 recruitment) (NOP): not active
- Emax (DOR): 6%
